# According to PMC10280131 (RSC Advances, 2023):
# Marks after values point to notes of the source that are not given here.
# How the values were obtained:
# [1] = Antioxidant assay by DPPH scavenging
# [2] = target: Acetylcholinesterase (AChE) (Homo sapiens, UniProt P22303); experiment: Acetylcholinesterase inhibition screening; type: biochemical
# [3] = tested on: Alzheimer's disease-induced rats; experiment: Beam balance test in AlCl3-induced AD rats; type: in vivo, rat; conditions: Treatment 4 weeks
# AD-induced rats = experiment: T-maze test in AlCl3-induced AD rats; type: in vivo, rat; conditions: Treatment 4 weeks; for T-maze test, time taken to reach food: seconds, n = 10
# Tau gene = Tau gene expression in brain samples of AD induced rats; type: in vivo, rat; conditions: AD rats treated vs AD rats
# Wistar rats = experiment: Acute toxicity, oral, rats
# male Wistar rats = type: in vivo, rat
# Bcl-2 gene = Bcl-2 gene expression in brain samples of AD induced rats; type: in vivo, rat; conditions: AD rats treated vs AD rats
# [4] = tested on: liver, kidneys, heart, and brain; experiment: Histopathological examination of chronic toxicity study; type: in vivo, mice; conditions: H&E
# Bax gene = Bax gene expression in brain samples of AD induced rats; type: in vivo, rat; conditions: AD rats treated vs AD rats
# [5] = tested on: brain tissue of AD-induced rats; experiment: Brain oxidative stress markers; type: in vivo, rat
# [6] = male rats, 10 mg per kg body weight
# [7] = male rats, 10 mg per kg body weight, one month
# Chain of Acetylcholinesterase (AChE) (P22303 32-614, species assumed): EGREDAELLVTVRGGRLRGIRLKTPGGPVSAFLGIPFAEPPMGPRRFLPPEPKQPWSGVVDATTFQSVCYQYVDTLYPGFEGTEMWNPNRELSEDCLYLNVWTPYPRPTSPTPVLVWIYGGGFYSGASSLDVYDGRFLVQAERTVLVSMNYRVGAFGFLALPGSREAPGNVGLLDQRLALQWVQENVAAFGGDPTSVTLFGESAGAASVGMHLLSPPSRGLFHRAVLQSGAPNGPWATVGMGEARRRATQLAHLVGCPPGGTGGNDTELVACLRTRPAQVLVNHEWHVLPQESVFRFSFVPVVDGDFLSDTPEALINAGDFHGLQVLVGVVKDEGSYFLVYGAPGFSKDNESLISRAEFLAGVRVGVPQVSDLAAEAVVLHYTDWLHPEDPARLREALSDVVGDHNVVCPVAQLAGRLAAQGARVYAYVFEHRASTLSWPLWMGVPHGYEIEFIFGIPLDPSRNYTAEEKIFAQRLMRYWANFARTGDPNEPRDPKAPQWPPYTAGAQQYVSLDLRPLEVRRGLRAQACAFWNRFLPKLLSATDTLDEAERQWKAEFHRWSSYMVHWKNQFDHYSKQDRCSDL
smiles,measurement,setting,value
"Cc1cc(=O)oc2cc(OCC(=O)NN=C3C(=O)Nc4ccccc43)ccc12 [Compound 4b, 2-((4-Methyl-2-oxo-2H-chromen-7-yl)oxy)-N′-(2-oxoindolin-3-ylidene) acetohydrazide]",Percent of antioxidant activity (DPPH scavenging),[1]; Concentration (0.01 mg),31.8 ± 1.2%
same,Percent of antioxidant activity (DPPH scavenging),[1]; Concentration (0.05 mg),35.00 ± 1.00%
same,IC50,[2],20.9 µM
"COc1cc2c(cc1OC)C(=O)C(CC1CCN(Cc3ccccc3)CC1)C2 (centres unmarked) [Donepezil, reference compound]",Beam balance test time,[3],9.80 ± 0.88 Sc
same,"Beam balance test, % improvement",[3],67.98%
same,"T-maze test, % improvement",AD-induced rats,181.70%
same,"T-maze test, time taken to reach food",AD-induced rats,23.10 ± 1.70 Sc
"Cc1cc(=O)oc2cc(OCC(=O)NN=Cc3ccc(C(=O)O)cc3)ccc12 [Compound 4d, 4-((2-(2-((4-Methyl-2-oxo-2H-chromen-7-yl)oxy)acetyl) hydrazineylidene)methyl) benzoic acid]",Percent of antioxidant activity (DPPH scavenging),[1]; Concentration (0.01 mg),4.5 ± 0.4%
same,Percent of antioxidant activity (DPPH scavenging),[1]; Concentration (0.05 mg),10.3 ± 0.33%
same,IC50,[2],3.15 µM
"Cc1cc(=O)oc2cc(OCC(=O)NN=C3CCc4ccccc43)ccc12 [Compound 4c, N′-(2,3-Dihydro-1H-inden-1-ylidene)-2-((4-methyl-2-oxo-2H-chromen-7-yl)oxy)acetohydrazide]",Expression of Tau gene,Tau gene,reduced expression
same,Mortality,"Wistar rats; 50 mg per kg b.wt, rats",No mortality
same,Mortality,"Wistar rats; 100 mg per kg b.wt, post 24 h, one rat of 4",25%
same,Percent of antioxidant activity (DPPH scavenging),[1]; Concentration (0.01 mg),28.00 ± 0.4%
same,Percent of antioxidant activity (DPPH scavenging),[1]; Concentration (0.05 mg),57.14 ± 2.77%
same,Signs of chronic toxicity,"male Wistar rats; 10 mg per kg b.wt orally, male Wistar rats, one month",didn't see any indication of harmfulness
same,Change in blood profile levels vs control rats,"male Wistar rats; 10 mg per kg b.wt, one month",insignificant changes
same,Change in creatinine level vs untreated group,"male Wistar rats; 10 mg per kg b.wt, one month",significant increase
same,"Change in hepatic enzyme levels (AST, ALT, and ALP) vs control group","male Wistar rats; 10 mg per kg b.wt, one month",insignificant difference
same,Change in total urea level vs untreated group,"male Wistar rats; 10 mg per kg b.wt, one month",insignificant change
same,ALP,male Wistar rats; [6],136.00 ± 9.00 ^a U/l
same,ALT,male Wistar rats; [6],79.00 ± 4.40 ^a U/l
same,AST,male Wistar rats; [6],32.00 ± 1.20 ^a U/l
same,Creatinine,male Wistar rats; [6],2.80 ± 0.07 mg/dL
same,Urea,male Wistar rats; [6],20.00 ± 1.57 mg/dL
same,Haematocrit,male Wistar rats; [7],45.00 ± 1.87 ^a %
same,Hemoglobin (Hb),male Wistar rats; [7],14.58 ± 0.59 ^a g L^−1
same,Lymphocyte,male Wistar rats; [7],7.62 ± 0.66 ^a 10^3 cm^−1
same,MPV,male Wistar rats; [7],8.66 ± 0.19 ^a fL
same,Mean corpuscular hemoglobin (MCH),male Wistar rats; [7],17.78 ± 0.88 ^a pg
same,Mean corpuscular hemoglobin concentration (MCHC),male Wistar rats; [7],33.98 ± 0.25 ^a g dL^−1
same,Mean corpuscular volume (MCV),male Wistar rats; [7],59.00 ± 0.03 ^a fL
same,Monocyte,male Wistar rats; [7],1.93 ± 0.06 ^a 10^3 cm^−1
same,Neutrophils,male Wistar rats; [7],2.39 ± 0.09 ^a 10^3 cm^−1
same,Platelets,male Wistar rats; [7],465.00 ± 12.00 ^a 10^3 mm^−1
same,RDW-CV,male Wistar rats; [7],15.80 ± 0.19 ^a %
same,Red blood cells (RBCs),male Wistar rats; [7],8.00 ± 0.08 ^a million cells per mm
same,White blood cells WBCs,male Wistar rats; [7],10.89 ± 1.90 ^a 10^3 cmm^−1
same,Beam balance test time,[3],8.99 ± 1.00 Sc
same,"Beam balance test, % improvement",[3],60.00%
same,Expression of Bcl-2 gene,Bcl-2 gene,improved expression
same,Heart and brain histopathology,[4],no histopathological damage
same,Kidney histopathology,[4],no histopathological alterations
same,Liver histopathology,[4],slight Kupffer cell proliferation
same,"T-maze test, % improvement",AD-induced rats,148.37%
same,"T-maze test, time taken to reach food",AD-induced rats,28.20 ± 1.80 Sc
same,IC50,[2],2.21 µM
same,Expression of Bax gene,Bax gene,reduced expression
same,GSH % improvement,[5]; AD-induced rats,27.17%
same,MDA % improvement,[5]; AD-induced rats,90.64%
same,GSH,"[5]; AD-induced rats, n = 8",21.66 ± 1.21 mg per g tissues
same,MDA,"[5]; AD-induced rats, n = 8",22.43 ± 1.66 mg per g tissues
same,GSH % change to disease,[5]; vs AD group,59.26%
same,MDA % change to disease,[5]; vs AD group,32.19%
"Cc1cc(=O)oc2cc(OCC(=O)NN=C3CCCc4ccccc43)ccc12 [Compound 4a, N′-(3,4-dihydronaphthalen-1(2H)-ylidene)-2-((4-methyl-2-oxo-2H-chromen-7-yl)oxy)acetohydrazide]",Percent of antioxidant activity (DPPH scavenging),[1]; Concentration (0.01 mg),31.8 ± 0.2%
same,Percent of antioxidant activity (DPPH scavenging),[1]; Concentration (0.05 mg),40.9 ± 3.1%
same,IC50,[2],13.1 µM
"O=C1O[C@H]([C@@H](O)CO)C(O)=C1O [Vitamin C, ascorbic acid, reference compound]",Percent of antioxidant activity (DPPH scavenging),[1]; Concentration (0.01 mg),80.00 ± 5.00%
same,Percent of antioxidant activity (DPPH scavenging),[1]; Concentration (0.05 mg),89.00 ± 6.99%
